Data reported in paper PMC11820736, “Design, Synthesis, and Anti-Tyrosinase, Anti-Melanogenic, and Antioxidant Activities of Novel (Z)-3-Benzyl-5-Benzylidene-2-Thioxothiazolidin-4-One Analogs” (Molecules, 2025).

Key:
B16F10 cells = assay: Cellular melanin level measurement in B16F10 cells; type: cell-based, murine; details: α-MSH + IBMX, 72 h
Method: Stimulators comprising 1 μM α-melanocyte-stimulating hormone (α-MSH) and 200 μM 3-isobutyl-1-methylxanthine (IBMX) were administered 1 h after test sample treatment. The effects of analogs 1 and 3 on melanin production were determined by measuring the optical density at 405 nm after 72 h of treatment.
B16F10 cells were seeded at a density of 5000 per well of a 6-well plate, and the plate was cultivated under normal cell culture conditions for 24 h. […] In addition, 200 μM IBMX and 1 μM α-MSH (Alomone Labs™, Jerusalem, Israel) were added to each well and cultivated for 72 h under the normal cell culture conditions. To determine the cellular melanin levels, 1N–NaOH solution (100 μL) was added to each well and then kept at 60 °C for 1 h to lyse the cells. The cell lysates were washed twice with phosphate-buffered saline (PBS) and transferred to a 96-well plate, and the absorbance was recorded at 405 nm using a VE microplate reader to determine the cellular melanin content.

[1] = biological target: T1, B16F10 cellular tyrosinase (Mus musculus, UniProt P11344); assay: Cellular tyrosinase activity measurement in B16F10 cells; type: cell-based, murine; details: α-MSH + IBMX, 72 h
T1 construct: endogenous in cells; host or cells: B16F10 murine melanoma cells stimulated with α-MSH and IBMX
T1 sequence (P11344 19-533): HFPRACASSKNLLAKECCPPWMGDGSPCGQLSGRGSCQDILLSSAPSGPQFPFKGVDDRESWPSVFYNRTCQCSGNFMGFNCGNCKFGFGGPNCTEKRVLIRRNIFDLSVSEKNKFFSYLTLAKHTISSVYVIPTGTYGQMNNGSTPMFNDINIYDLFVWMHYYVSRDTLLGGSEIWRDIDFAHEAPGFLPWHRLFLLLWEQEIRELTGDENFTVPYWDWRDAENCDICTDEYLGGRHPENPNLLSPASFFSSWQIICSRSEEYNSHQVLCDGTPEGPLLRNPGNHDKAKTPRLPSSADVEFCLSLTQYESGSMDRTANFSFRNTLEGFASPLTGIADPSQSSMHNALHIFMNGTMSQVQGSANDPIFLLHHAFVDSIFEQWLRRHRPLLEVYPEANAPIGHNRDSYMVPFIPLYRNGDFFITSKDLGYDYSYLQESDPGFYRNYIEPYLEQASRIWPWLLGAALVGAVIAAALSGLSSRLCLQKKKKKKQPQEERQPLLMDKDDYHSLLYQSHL
Method: The cellular tyrosinase inhibitory activity of the test samples was determined by measuring their optical density at 475 nm 72 h after test sample treatment.
B16F10 cells were seeded at a density of 5000 per well of a 6-well plate, and the plate was cultivated under normal cell culture conditions for 24 h. […] Stimulators (200 μM IBMX and 1 μM α-MSH) were added to each well and cultivated for 72 h under normal cell culture conditions. To determine cellular tyrosinase activity, the cells were washed twice with PBS, treated with lysis buffer solution (100 μL) comprising 50 mM phosphate buffer (pH 6.5) (90 μL), 2 mM phenylmethanesulfonyl fluoride (5 μL), and 20% Triton X-100 (5 μL), and incubated at −80 °C for 30 min. After centrifugation (10,000× g, 4 °C, and 10 min), the supernatants (80 μL each) were transferred to each well of a 96-well plate, then 10 mM L-DOPA (20 μL) was added to each well. The absorbance was measured at 475 nm at 1 min intervals for 10 min using a VE microplate reader to determine cellular tyrosinase activity.

B16F10 cell tyrosinase = biological target: T2, B16F10 cell tyrosinase (Mus musculus, UniProt P11344); assay: In situ cellular tyrosinase activity in B16F10 cells (L-DOPA staining); type: cell-based, murine
T2 construct: endogenous in cells; host or cells: B16F10 murine melanoma cells stimulated with α-MSH and IBMX
T2 sequence (P11344 19-533): T1 sequence (P11344 19-533)
Method: To identify the in situ cellular tyrosinase inhibitory activity of analogs 1 and 3, B16F10 cells and L-DOPA were used as the experimental target cells and substrate for melanin synthesis, respectively. […] B16F10 cells were photographed after 2 h of treatment with excess L-DOPA, and the darkness of the cells was measured using the CS analyzer program (ATTO, Tokyo, Japan). Analogs 1 and 3 were used at 2, 5, and 10 μM.
After 1 h, the cells were exposed to 1 μM α-MSH and 200 μM IBMX and cultivated under normal cell culture conditions for 72 h. Cultured cells were fixed using a 4% paraformaldehyde solution for 40 min, washed twice with PBS, and permeabilized using 0.1% Triton X-100 for 2 min. L-DOPA solution (2 mM; 500 μL) was added to each well after washing twice with PBS. After the plate was placed for 2 h at 37 °C, the images for cell staining were acquired using a camera attached to a microscope (Motic, Hong Kong).

[2] = ROS-scavenging activity (SIN-1, DCFH); details: 40 μM, SIN-1 10 μM
Method: UV-A radiation induces ROS generation substantially, and oxidative stress accelerates melanin formation in organisms. Thus, the ROS-scavenging ability of (Z)-BBTT analogs was examined to determine whether these analogs have an auxiliary ability to scavenge ROS. 3-Morpholinosydnonimine (SIN-1; 10 μM) was used as a ROS generating substance, and Trolox (40 μM) was used as a positive reference standard.
The test samples ((Z)-BBTT analogs 1–12 and Trolox [positive reference standard]) and 3-morpholinosydnonimine (SIN-1) were dissolved in DMSO and PBS, respectively. To prepare 2′,7′-dichlorodihydrofluorescein (DCFH) solution, PBS (50 mM; 4.9 mL, pH 7.4) and DCFH diacetate (2.5 mM; 0.05 mL) were mixed with esterase (15 units/10 mL; 0.05 mL). After storage for 30 min at 20 °C, the mixture was placed in the dark until further use. SIN-1 (10 µL) was added to each well of a 96-well black plate containing PBS (180 µL) and test sample (10 µL), and the plate was placed in the dark for 5 min. The prepared DCFH solution (50 µL) was added to each well of the black plate. The fluorescence of each well was recorded at 535 nm using a microplate reader (Berthold Advances GmbH & Co., Bad Wildbad, Germany) at an excitation wavelength of 485 nm. The test samples and SIN-1 were tested at final concentrations of 40 and 10 μM, respectively.

HaCaT cells = assay: Cytotoxicity assay on HaCaT cells (EZ-Cytox); type: cell-based, human; details: 2, 5, 10 and 20 μM, 72 h
Method: As keratinocytes are one of the major cells that constitute the epidermis, the effects of analogs 1–3 on HaCaT (immortalized human keratinocytes) cell viability were investigated. Analogs 1–3 were tested at concentrations of 0, 2, 5, 10, and 20 μM, and cell viability was determined 72 h after incubation.
The effect of (Z)-BBTT analogs 1–3 on HaCaT cell viability was examined using EZ-Cytox solution. HaCaT cells were seeded at a density of 1 × 10^3 in each well of a 96-well plate, and the plate was cultivated under normal cell culture conditions for 24 h. Analogs 1–3 were added to each well at concentrations of 0, 2, 5, 10, and 20 μM and then cultivated for 72 h under normal cell culture conditions. An aliquot (10 μL) of the EZ-Cytox solution was added to each well and cultivated for 2 h. Well absorbance was recorded at 450 nm using a VE microplate reader to calculate HaCaT cell viability.

[3] = 2, 5 and 10 μM, concentration-dependent

Question: With `O=C1/C(=C/c2ccc(O)cc2O)SC(=S)N1Cc1ccccc1` [Compound 3, (Z)-3-Benzyl-5-(2,4-dihydroxybenzylidene)-2-thioxothiazolidin-4-one] as the compound, how does the “inhibition of melanin production compared with kojic acid at the same concentration” value (B16F10 cells; 10 μM) read?
Answer: The value was “significantly more potently than kojic acid”.

Question: And the “effect on stimulator-induced increase in melanin contents” value (B16F10 cells; [3])?
Answer: Its value is “significantly decreased”.

Question: And the “melanin content compared with 10 μM kojic acid” value (B16F10 cells; analog at 2 μM)?
Answer: The value was “more weakly than 10 μM kojic acid”.

Question: And the “inhibition of cellular tyrosinase activity compared with kojic acid” value ([1]; 10 μM)?
Answer: The value was “more strongly than kojic acid”.

Question: What about the “effect on stimulator-enhanced cellular tyrosinase activity” value [1, 3] of the same compound?
Answer: The value was “significantly decreased”.

Question: What about the “relative dark area of cells compared with kojic acid at the same concentration” value (B16F10 cell tyrosinase; 10 μM, L-DOPA staining) of the same compound?
Answer: The value was “significantly less than that of kojic acid”.

Question: What about the “number of cells strongly stained with melanin” value (B16F10 cell tyrosinase; kojic acid 10 μM, analogs 2, 5 and 10 μM, α-MSH + IBMX, 72 h) of the same compound?
Answer: Its value is “reduced the number of strongly stained cells in a concentration-dependent manner”.

Question: What about the “ROS-scavenging activity (SIN-1-induced ROS levels)” value [2] of the same compound?
Answer: Its value is “equipotent to that of Trolox”.

Question: What about the “cytotoxicity to HaCaT cells” value (HaCaT cells) of the same compound?
Answer: Its value is “no perceptible cytotoxicity”.
